Test systems include ACHN renal; MALME-3M melanoma; HOP-92 NSCLC; SW-620 colon; LOX IMVI melanoma; HOP-62 NSCLC; A498 renal; HT29 colon; MDA-MB-435.
Holding throughout (test): DTP human tumour cell line panel, 48 h

One may read the TGI as the concentration at which net growth stops. High values mean less potent growth arrest, low ones more potent growth arrest. A word on the GI50: it is the concentration giving 50% growth inhibition.

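96-well plates; 48 h exposure; 5 concentrations. Endpoints by linear interpolation between flanking doses. Not reached: highest tested concentration assigned. Abbreviation: GI50, concentration required for 50% inhibition of growth. TGI marks complete inhibition of growth.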

For `COc1ccc2nc3cc(Cl)ccc3c(SCC(=O)Nc3ccccc3-c3ccccc3NC(=O)CSc3c4ccc(Cl)cc4nc4ccc(OC)cc34)c2c1`, the TGI in the assay with ACHN renal, in the assay on MALME-3M melanoma, with HOP-92 NSCLC, in the assay on SW-620 colon, with LOX IMVI melanoma and with HOP-62 NSCLC was greater than 100 µM each time. Besides, the TGI in the assay on A498 renal and in the assay on HT29 colon was greater than 100 µM in each case.
As for `CC1(C)CC2CC(CC(C)(C)C2=O)C1=O`, the TGI in the assay on ACHN renal, in the assay with MALME-3M melanoma, in the assay with HOP-92 NSCLC, in the assay on SW-620 colon, in the assay on LOX IMVI melanoma and in the assay on HOP-62 NSCLC was greater than 100 µM each time. Moreover, the TGI in the assay with A498 renal and in the assay on HT29 colon was greater than 100 µM each time.
As to `CCSc1nc(SCC)c2c(-c3ccc(OC)c(OC)c3)c(C#N)c(SCC)nc2n1`, the GI50 was 17.8 µM with ACHN renal; 23.2 µM with HOP-92 NSCLC; 61.1 µM in the assay on SW-620 colon; 22.9 µM with LOX IMVI melanoma; 22.6 µM with HOP-62 NSCLC; 18.7 µM in the assay on MDA-MB-435. For the same molecule, the TGI with ACHN renal was 38 µM; in the assay with HOP-92 NSCLC, 76.7 µM; in the assay with SW-620 colon, greater than 100 µM; in the assay on LOX IMVI melanoma, 60.1 µM; in the assay on HOP-62 NSCLC, 63.2 µM; in the assay on MDA-MB-435 it was 57.8 µM.
As for `COc1cccc(NC(=O)CC(=O)N2N=C(N3c4ccccc4Sc4ccccc43)CC2c2ccccc2)c1` (stereo unspecified), the TGI in the assay on ACHN renal, in the assay on MALME-3M melanoma, in the assay on HOP-92 NSCLC, in the assay on SW-620 colon, with LOX IMVI melanoma and in the assay with HOP-62 NSCLC was greater than 100 µM in each case. The TGI in the assay with A498 renal and in the assay on HT29 colon was greater than 100 µM throughout.
Take `CN(C)C(=O)c1cnc2oc3ccc(O)cc3c2c1-c1ccccc1`: the GI50 in the assay with ACHN renal, with HOP-92 NSCLC, in the assay on SW-620 colon, with LOX IMVI melanoma, with HOP-62 NSCLC and in the assay with MDA-MB-435 was greater than 25 µM in each case. In addition, the TGI in the assay on ACHN renal, with HOP-92 NSCLC, in the assay on SW-620 colon, in the assay on LOX IMVI melanoma, in the assay on HOP-62 NSCLC and with MDA-MB-435 was greater than 25 µM each time.
Regarding `O=C(N/C(=C\c1ccc(/C=C(\NC(=O)c2ccccc2)c2nc3ccccc3[nH]2)cc1)c1nc2ccccc2[nH]1)c1ccccc1`, the TGI in the assay on ACHN renal, in the assay with MALME-3M melanoma, in the assay with HOP-92 NSCLC, in the assay on SW-620 colon, in the assay on LOX IMVI melanoma and in the assay with HOP-62 NSCLC was greater than 100 µM in each case. The TGI in the assay on A498 renal and with HT29 colon was greater than 100 µM each time.
`COc1cc2c(cc1OC)[C@@H](Nc1ccc(F)cc1)C1COC(=O)[C@@H]1C2c1cc(OC)c(O)c(OC)c1` (stereo partly specified): the TGI is 2.49 µM in the assay on ACHN renal; greater than 88.8 µM in the assay with MALME-3M melanoma; greater than 38.5 µM in the assay on SW-620 colon; greater than 43.4 µM in the assay on LOX IMVI melanoma; 2.49 µM in the assay with HOP-62 NSCLC; 7.78 µM in the assay with A498 renal. The same molecule registered a TGI in the assay on HT29 colon greater than 58.3 µM.
On to `CCc1cccc(C)c1NC(=O)C1=C(C)NC(C)=C(C(=O)Nc2c(C)cccc2CC)C1c1ccc2c(c1)OCO2`, for which the TGI was determined as 29.6 µM in the assay with ACHN renal; 30.5 µM in the assay on MALME-3M melanoma; 59.3 µM in the assay with HOP-92 NSCLC; 55.9 µM in the assay on SW-620 colon; 42.5 µM in the assay on LOX IMVI melanoma; 36.9 µM in the assay with HOP-62 NSCLC. Also, the TGI in the assay on A498 renal was found to be 34.6 µM; with HT29 colon it was 39.4 µM.
As to `CCCN(CCC)C(=O)C(=O)c1c(N)[nH]n(-c2ccccc2)c1=O`, the TGI with ACHN renal, in the assay with MALME-3M melanoma, in the assay on HOP-92 NSCLC, in the assay on SW-620 colon, in the assay on LOX IMVI melanoma and in the assay with A498 renal was greater than 100 µM each time. This molecule also registered a TGI in the assay on HT29 colon greater than 100 µM.
Take `COc1ccc(COC2CC(OC)OC(C)C2OC(=O)c2ccccc2)cc1` (stereo unspecified): the TGI in the assay with ACHN renal was greater than 88.4 µM; in the assay on MALME-3M melanoma it was greater than 71.3 µM; in the assay on HOP-92 NSCLC, greater than 100 µM; in the assay on SW-620 colon, greater than 100 µM; in the assay on LOX IMVI melanoma, 67.9 µM; with HOP-62 NSCLC, greater than 100 µM. The TGI in the assay on A498 renal is greater than 100 µM; with HT29 colon, 39.6 µM.
Consider `CNC(=O)OCc1c2ccncc2c(C)c2c1[nH]c1ccc(OC)cc12`, for which the concentration for total growth inhibition (TGI) in the assay with ACHN renal is 0.563 µM; with MALME-3M melanoma it was 1.87 µM; in the assay on HOP-92 NSCLC, 0.618 µM; with SW-620 colon it was greater than 100 µM; with LOX IMVI melanoma, greater than 100 µM; with HOP-62 NSCLC, 1.07 µM. Also, the TGI with A498 renal is 0.458 µM; with HT29 colon, greater than 100 µM.
As to `COc1cccc(NC(=O)CC(=O)N2N=C(n3ccc4ccccc43)CC2c2ccccc2)c1` (stereo unspecified), the TGI in the assay on ACHN renal, with MALME-3M melanoma, in the assay with HOP-92 NSCLC, with SW-620 colon, in the assay on LOX IMVI melanoma and with HOP-62 NSCLC was greater than 100 µM each time. For the same molecule, the TGI in the assay with A498 renal and with HT29 colon was greater than 100 µM throughout.
Consider `CCOc1ccc(NC(=O)C(=O)C(C(=O)c2ccc3ccccc3c2)C2OC(=O)c3ccccc32)cc1` (stereo unspecified), for which the TGI is greater than 100 µM in the assay on ACHN renal; 77.4 µM with MALME-3M melanoma; 68.3 µM in the assay on HOP-92 NSCLC; 92.6 µM with SW-620 colon; 33.2 µM with LOX IMVI melanoma; 39.4 µM with HOP-62 NSCLC. In addition, the TGI is 45.8 µM in the assay on A498 renal and greater than 100 µM in the assay with HT29 colon.
`C[C@]12CCC(=O)CC1CCCC2=O` (stereo partly specified): the TGI in the assay on MALME-3M melanoma, in the assay on HOP-92 NSCLC, with SW-620 colon, in the assay on LOX IMVI melanoma, in the assay with HOP-62 NSCLC and in the assay on A498 renal was greater than 100 µM in each case. The molecule also displayed a TGI with HT29 colon greater than 100 µM.
On to `Oc1c(Cl)c(Cl)c(O)c2c1CCCC2`, for which the TGI is 3.27 µM in the assay with ACHN renal; 9.48 µM in the assay with MALME-3M melanoma; 4.85 µM with HOP-92 NSCLC; 3.92 µM in the assay with SW-620 colon; 78.6 µM with LOX IMVI melanoma; 51.6 µM in the assay on HOP-62 NSCLC. Moreover, the TGI in the assay with A498 renal was determined as 33.1 µM; in the assay on HT29 colon, 44.6 µM; in the assay on MDA-MB-435, 34.1 µM.
